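96-well plates; 48 h exposure; 5 concentrations. Endpoints by linear interpolation between flanking doses. Not reached: highest tested concentration assigned. TGI marks complete inhibition of growth.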
Tests used:
Experiment in all cases: NCI tumour cell line growth inhibition, 48 h
[1] = tested on: CAKI-1 renal
[2] = tested on: CCRF-CEM leukemia
[3] = tested on: HT29 colon
[4] = tested on: KM12 colon
[5] = tested on: MDA-N
[6] = tested on: MOLT-4 leukemia
[7] = tested on: NCI-H23 lung
[8] = tested on: NCI-H460 lung
[9] = tested on: NCI/ADR-RES ovarian
[10] = tested on: OVCAR-8 ovarian
[11] = tested on: RXF 393 renal
[12] = tested on: SF-268 CNS
[13] = tested on: SF-539 CNS
[14] = tested on: SK-MEL-2 melanoma
[15] = tested on: SN12C renal
[16] = tested on: SW-620 colon
[17] = tested on: T-47D breast
[18] = tested on: TK-10 renal
[19] = tested on: MCF7 breast
[20] = tested on: HS 578T breast

Measured: TGI

CC(=O)n1nc(-c2ccccc2)n(/N=C/c2ccc([N+](=O)[O-])cc2)c1=O
not listed: [19] | [20]
> 100 µM: all other assays above

O=C1OC[C@@H]2Cc3cc4c(cc3[C@H](c3ccc5c(c3)OCO5)[C@@H]12)OCO4
21.6 µM: [5]
not listed: [11] | [12] | [13] | [16] | [17] | [20]
> 25 µM: all other assays above

COc1nc(C(=O)NNC(=O)c2nc(OC)c3ccccc3c2-c2ccccc2)c(-c2ccccc2)c2ccccc12
not listed: [5] | [8] | [13]
> 100 µM: all other assays above

S=C(c1c[nH]c2ccccc12)N1CCOCC1
not listed: [17]
> 100 µM: all other assays above

CCc1nc(N)nc(N)c1-c1ccc(Cl)c(Cl)c1
not listed: [5] | [6] | [10]
> 100 µM: all other assays above

CCCCCN=Cc1c(O)c(O)c(C(C)C)c2cc(C)c(-c3c(C)cc4c(C(C)C)c(O)c(O)c(C=NCCCCC)c4c3O)c(O)c12
47.3 µM: [12]
97.6 µM: [1]
46.8 µM: [11]
27.2 µM: [19]
19.8 µM: [4]
25.8 µM: [17]
not listed: [5] | [6]
> 100 µM: all other assays above

CC(=O)Nc1ccc(C(=O)NN2C(=O)C(Cl)C2c2ccccc2)cc1 (configuration not stated)
not listed: [4] | [5] | [9] | [17] | [19] | [20]
> 100 µM: all other assays above

O/N=C1/COC(C(F)(F)F)(C(F)(F)F)C1
not listed: [2] | [5]
> 100 µM: all other assays above

CC1CC(N)=Nc2ccccc2N1 (configuration not stated)
not listed: [8] | [13] | [17] | [19]
> 100 µM: all other assays above

Cc1nc2ccccc2c(=O)n1NC(=O)c1ccc(CS)cc1
87.6 µM: [17]
63.7 µM: [4]
60.4 µM: [8]
21.7 µM: [16]
52.1 µM: [7]
70.8 µM: [15]
3.6 µM: [2]
12.3 µM: [6]
95.4 µM: [20]
> 100 µM: [3] | [9] | [10]
26.6 µM: [13]
52 µM: [12]
26.2 µM: [19]

CC[N+](CC)(CCNCC(N)=O)CC(N)=O
not listed: [17]
> 10 µM: all other assays above

NC(=O)C(N)Cc1ccc(O)cn1 (configuration not stated)
not listed: [14] | [17]
> 100 µM: all other assays above

S=C(NCc1ccccc1)c1nc[nH]c1C(=S)NCc1ccccc1
23.2 µM: [13]
24.9 µM: [11]
25.7 µM: [7]
12.1 µM: [2]
19.8 µM: [12]
22.2 µM: [14]
16.3 µM: [9]
17.4 µM: [17]
23 µM: [5]
22.7 µM: [3]
20 µM: [4]
23.9 µM: [18]
25.4 µM: [6]
18.7 µM: [1] | [8]
18.8 µM: [10]
25 µM: [15]
20.8 µM: [16]

COc1cc(C[S+]2CCCC2)c(SC)cc1C[S+]1CCCC1
not listed: [5] | [9] | [17] | [19] | [20]
> 100 µM: all other assays above

CN(c1ccc(Cl)cc1)S(=O)(=O)c1cccc([N+](=O)[O-])c1
not listed: [17]
> 100 µM: all other assays above

COc1ccc(C2S/C(=C\c3ccccc3O)C(=O)N2NC(=O)Cc2ccccc2)cc1 (configuration not stated)
not listed: [5] | [9] | [17] | [19] | [20]
> 100 µM: all other assays above

N#CSC#Cc1ccc(C#CSC#N)cc1
34.5 µM: [5]
35.7 µM: [11]
43.3 µM: [13]
42.6 µM: [10]
42.1 µM: [3]
44.1 µM: [16]
48.8 µM: [20]
34.6 µM: [15]
42.5 µM: [9]
> 100 µM: [2] | [6]
35.5 µM: [7]
31.6 µM: [1]
51.7 µM: [12]
38.9 µM: [8]
31.3 µM: [18]
38.6 µM: [19]
38.8 µM: [14]
36.8 µM: [4]

C[C@]12C=CC(=O)C=C1CC[C@H]1[C@@H]3C[C@@H](O)[C@](O)(C(=O)CO)[C@@]3(C)C[C@H](O)[C@@]12F
not listed: [5] | [9] | [17] | [19] | [20]
> 100 µM: all other assays above

O=C(c1ccc(O)cc1)C1c2c3c(cc(O)c2C(c2ccc(O)cc2)C1c1cc(O)cc(O)c1)OC(c1ccc(O)cc1)C3c1cc2c(cc1O)OC(c1ccc(O)cc1)C2c1cc(O)cc(O)c1 (configuration not stated)
not listed: [3] | [5] | [9] | [11] | [17] | [19] | [20]
> 12.5 µM: all other assays above

Cc1cc(C)c(S(=O)(=O)N2CCCN(S(=O)(=O)c3c(C)cc(C)cc3C)OCCCON(S(=O)(=O)c3c(C)cc(C)cc3C)CCCN(S(=O)(=O)c3c(C)cc(C)cc3C)OCCCO2)c(C)c1
not listed: [15] | [17]
> 100 µM: all other assays above

CC(C)(Cc1ccccc1)NC1=NCCO1
not listed: [12] | [15] | [17]
> 100 µM: all other assays above

COc1ccc(C2CC(=O)CC(c3ccc(OC)cc3)C23C(=O)NC(=O)NC3=O)cc1 (configuration not stated)
86.4 µM: [5]
65.3 µM: [1]
72.9 µM: [4]
97.9 µM: [15]
50.2 µM: [16]
46.7 µM: [14]
64.8 µM: [6]
64.7 µM: [7]
not listed: [17] | [20]
> 100 µM: all other assays above

NS(=O)(=O)c1nn2c(Br)c(-c3ccccc3)nc2s1
11.1 µM: [7]
16 µM: [19]
30.7 µM: [20]
9.48 µM: [11]
3.95 µM: [13]
21.3 µM: [4]
5.67 µM: [6]
30.9 µM: [12]
7.89 µM: [10]
8.4 µM: [3]
9.72 µM: [1]
17.7 µM: [18]
12.6 µM: [9]
11 µM: [2]
12.4 µM: [16]
19.3 µM: [8]
7.94 µM: [15]
16.9 µM: [14]
12.2 µM: [17]

CNC(=S)N(C)C(=S)Nn1c(=O)c(C)nn(C)c1=S
not listed: [1] | [5] | [9] | [14] | [17] | [18] | [19] | [20]
> 100 µM: all other assays above

O=S(=O)(c1ccccc1)n1c2cc3cccnc3nc2c2cccnc21
90.9 µM: [11]
not listed: [13] | [17]
> 100 µM: all other assays above

c1ccc2sc(C3(N4CCCC4)CCCCCC3)cc2c1
61.2 µM: [1]
45.1 µM: [18]
29.2 µM: [15]
24.2 µM: [2]
41.2 µM: [13]
34.4 µM: [16]
30.1 µM: [8]
33.2 µM: [19]
26.3 µM: [4]
35.9 µM: [12]
25.7 µM: [11]
32.1 µM: [5]
19.3 µM: [3]
44.4 µM: [9]
29.3 µM: [6]
37 µM: [10]
40.6 µM: [7]

COC(C)(C)C1=CCC(C)CC1 (configuration not stated)
not listed: [2] | [9] | [14] | [17]
> 100 µM: all other assays above

Reference: PubChem BioAssay (NCI)
